The results in this text go back to ChEMBL document CHEMBL4610122, “Synthesis and Structure-Activity Relationships of DCLK1 Kinase Inhibitors Based on a 5,11-Dihydro-6H-benzo[e]pyrimido[5,4-b][1,4]diazepin-6-one Scaffold” (J Med Chem, 2020).

Data set [1] concerns the target T1, Serine/threonine-protein kinase DCLK1 (Homo sapiens, UniProt O15075).
T1 sequence (O15075 whole entry): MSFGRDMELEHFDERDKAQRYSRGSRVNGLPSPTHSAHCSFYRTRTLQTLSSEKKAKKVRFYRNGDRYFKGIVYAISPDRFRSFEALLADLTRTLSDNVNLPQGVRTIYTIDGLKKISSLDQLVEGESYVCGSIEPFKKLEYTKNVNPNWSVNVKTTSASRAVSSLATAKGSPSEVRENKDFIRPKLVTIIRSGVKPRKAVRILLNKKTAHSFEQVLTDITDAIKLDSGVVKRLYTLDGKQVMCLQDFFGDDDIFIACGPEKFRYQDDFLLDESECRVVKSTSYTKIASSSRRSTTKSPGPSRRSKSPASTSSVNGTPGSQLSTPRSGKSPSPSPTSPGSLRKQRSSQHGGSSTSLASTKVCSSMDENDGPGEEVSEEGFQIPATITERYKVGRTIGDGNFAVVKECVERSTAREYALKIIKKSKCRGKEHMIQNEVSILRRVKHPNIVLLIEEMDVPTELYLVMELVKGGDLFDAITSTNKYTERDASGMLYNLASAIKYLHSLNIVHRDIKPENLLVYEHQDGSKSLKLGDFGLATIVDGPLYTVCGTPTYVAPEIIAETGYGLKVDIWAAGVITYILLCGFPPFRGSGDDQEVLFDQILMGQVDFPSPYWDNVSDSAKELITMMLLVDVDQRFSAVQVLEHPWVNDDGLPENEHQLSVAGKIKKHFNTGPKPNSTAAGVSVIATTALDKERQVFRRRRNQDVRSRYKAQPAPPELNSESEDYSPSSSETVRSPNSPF
As to the kind of experiment: Inhibition of recombinant human N-terminal His6-tagged DCLK1 (G351 to H689 residues) expressed in Escherichia coli BL21 DE3 using 5-FAM-KKLRRTLSVA-COOH as substrate measured after 2 hrs by mobility shift assay.

Data set [2] concerns the target Leucine-rich repeat serine/threonine-protein kinase 2 (Homo sapiens, UniProt Q5S007). Kind of data set: Inhibition of recombinant human GST-tagged LRRK2 catalytic domain (970 to 2527 residues) expressed in baculovirus expression system using LRRKtide as substrate measured after 1 hr by Alexa fluor-647 ADP tracer-based ADAPTA assay.
Data set [3] has as its target Mitogen-activated protein kinase 7 (Homo sapiens, UniProt Q13164). Kind of data set: Inhibition of ERK5 in human HeLa cells assessed as reduction in EGF-induced ERK5 autophosphorylation pretreated for 1 hr followed by EGF stimulation and measured after 17 mins by […]. It is filed as cell-based.
Data set [4] deals with Bromodomain-containing protein 4 (Homo sapiens, UniProt O60885). Kind of data set: Inhibition of BRD4 bromodomain 1 (unknown origin) by AlphaScreen displacement assay.
Data set [5] can be described thus: AUC in mouse. The conditions noted are these: in vivo. It is filed as ADME, organism-based.
The nature of data set [6]: Clearance in mouse. The class given is ADME, organism-based. The conditions noted are these: in vivo.
The species entered for data set [7] is Homo sapiens. Kind of data set: Cytotoxicity against human Panc281 cell organoids assessed as reduction in cell viability up to 1 uM measured after 4 days. It is filed as functional.
A short description of data set [8]: Cytotoxicity against human Panc286 cell organoids assessed as reduction in cell viability at 1 uM measured after 12 days relative to control. It is filed as functional.
Data set [9] in a line: Cytotoxicity against human Panc281 cell organoids assessed as reduction in cell viability at 1 uM measured after 12 days relative to control. It is filed as functional.
Data set [10] can be described thus: Half life in mouse. It is filed as ADME, organism-based. The conditions noted are these: in vivo.
The species named for data set [11] is Homo sapiens. As to the kind of experiment: Cytotoxicity against human Panc286 cell organoids assessed as reduction in cell viability up to 1 uM measured after 4 days. The class given is functional.

Calls of active or inactive are those of the source. The rule behind the calls is not given here.

Mitogen-activated protein kinase 7, sequence (Q13164 whole entry): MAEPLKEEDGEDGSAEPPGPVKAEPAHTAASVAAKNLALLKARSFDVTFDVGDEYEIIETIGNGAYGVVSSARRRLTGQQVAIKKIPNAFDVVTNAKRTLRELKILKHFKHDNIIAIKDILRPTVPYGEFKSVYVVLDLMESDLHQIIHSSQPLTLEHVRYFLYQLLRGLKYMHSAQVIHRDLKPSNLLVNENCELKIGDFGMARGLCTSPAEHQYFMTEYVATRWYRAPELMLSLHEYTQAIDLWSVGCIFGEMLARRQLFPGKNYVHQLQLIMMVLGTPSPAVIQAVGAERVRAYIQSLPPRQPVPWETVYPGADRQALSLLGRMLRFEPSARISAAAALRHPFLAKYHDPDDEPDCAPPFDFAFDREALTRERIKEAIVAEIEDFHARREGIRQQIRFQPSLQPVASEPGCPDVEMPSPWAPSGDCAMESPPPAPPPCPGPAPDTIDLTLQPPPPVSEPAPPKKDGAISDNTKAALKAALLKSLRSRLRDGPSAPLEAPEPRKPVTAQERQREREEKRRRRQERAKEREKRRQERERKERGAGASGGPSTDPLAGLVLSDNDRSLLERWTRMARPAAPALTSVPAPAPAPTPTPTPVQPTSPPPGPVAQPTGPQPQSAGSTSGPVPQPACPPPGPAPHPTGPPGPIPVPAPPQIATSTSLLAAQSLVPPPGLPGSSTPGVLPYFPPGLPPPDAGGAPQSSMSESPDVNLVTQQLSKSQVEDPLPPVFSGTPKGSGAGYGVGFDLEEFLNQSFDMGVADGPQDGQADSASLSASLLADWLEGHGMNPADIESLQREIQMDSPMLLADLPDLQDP
Leucine-rich repeat serine/threonine-protein kinase 2, sequence (Q5S007 whole entry, the tested form may be a part): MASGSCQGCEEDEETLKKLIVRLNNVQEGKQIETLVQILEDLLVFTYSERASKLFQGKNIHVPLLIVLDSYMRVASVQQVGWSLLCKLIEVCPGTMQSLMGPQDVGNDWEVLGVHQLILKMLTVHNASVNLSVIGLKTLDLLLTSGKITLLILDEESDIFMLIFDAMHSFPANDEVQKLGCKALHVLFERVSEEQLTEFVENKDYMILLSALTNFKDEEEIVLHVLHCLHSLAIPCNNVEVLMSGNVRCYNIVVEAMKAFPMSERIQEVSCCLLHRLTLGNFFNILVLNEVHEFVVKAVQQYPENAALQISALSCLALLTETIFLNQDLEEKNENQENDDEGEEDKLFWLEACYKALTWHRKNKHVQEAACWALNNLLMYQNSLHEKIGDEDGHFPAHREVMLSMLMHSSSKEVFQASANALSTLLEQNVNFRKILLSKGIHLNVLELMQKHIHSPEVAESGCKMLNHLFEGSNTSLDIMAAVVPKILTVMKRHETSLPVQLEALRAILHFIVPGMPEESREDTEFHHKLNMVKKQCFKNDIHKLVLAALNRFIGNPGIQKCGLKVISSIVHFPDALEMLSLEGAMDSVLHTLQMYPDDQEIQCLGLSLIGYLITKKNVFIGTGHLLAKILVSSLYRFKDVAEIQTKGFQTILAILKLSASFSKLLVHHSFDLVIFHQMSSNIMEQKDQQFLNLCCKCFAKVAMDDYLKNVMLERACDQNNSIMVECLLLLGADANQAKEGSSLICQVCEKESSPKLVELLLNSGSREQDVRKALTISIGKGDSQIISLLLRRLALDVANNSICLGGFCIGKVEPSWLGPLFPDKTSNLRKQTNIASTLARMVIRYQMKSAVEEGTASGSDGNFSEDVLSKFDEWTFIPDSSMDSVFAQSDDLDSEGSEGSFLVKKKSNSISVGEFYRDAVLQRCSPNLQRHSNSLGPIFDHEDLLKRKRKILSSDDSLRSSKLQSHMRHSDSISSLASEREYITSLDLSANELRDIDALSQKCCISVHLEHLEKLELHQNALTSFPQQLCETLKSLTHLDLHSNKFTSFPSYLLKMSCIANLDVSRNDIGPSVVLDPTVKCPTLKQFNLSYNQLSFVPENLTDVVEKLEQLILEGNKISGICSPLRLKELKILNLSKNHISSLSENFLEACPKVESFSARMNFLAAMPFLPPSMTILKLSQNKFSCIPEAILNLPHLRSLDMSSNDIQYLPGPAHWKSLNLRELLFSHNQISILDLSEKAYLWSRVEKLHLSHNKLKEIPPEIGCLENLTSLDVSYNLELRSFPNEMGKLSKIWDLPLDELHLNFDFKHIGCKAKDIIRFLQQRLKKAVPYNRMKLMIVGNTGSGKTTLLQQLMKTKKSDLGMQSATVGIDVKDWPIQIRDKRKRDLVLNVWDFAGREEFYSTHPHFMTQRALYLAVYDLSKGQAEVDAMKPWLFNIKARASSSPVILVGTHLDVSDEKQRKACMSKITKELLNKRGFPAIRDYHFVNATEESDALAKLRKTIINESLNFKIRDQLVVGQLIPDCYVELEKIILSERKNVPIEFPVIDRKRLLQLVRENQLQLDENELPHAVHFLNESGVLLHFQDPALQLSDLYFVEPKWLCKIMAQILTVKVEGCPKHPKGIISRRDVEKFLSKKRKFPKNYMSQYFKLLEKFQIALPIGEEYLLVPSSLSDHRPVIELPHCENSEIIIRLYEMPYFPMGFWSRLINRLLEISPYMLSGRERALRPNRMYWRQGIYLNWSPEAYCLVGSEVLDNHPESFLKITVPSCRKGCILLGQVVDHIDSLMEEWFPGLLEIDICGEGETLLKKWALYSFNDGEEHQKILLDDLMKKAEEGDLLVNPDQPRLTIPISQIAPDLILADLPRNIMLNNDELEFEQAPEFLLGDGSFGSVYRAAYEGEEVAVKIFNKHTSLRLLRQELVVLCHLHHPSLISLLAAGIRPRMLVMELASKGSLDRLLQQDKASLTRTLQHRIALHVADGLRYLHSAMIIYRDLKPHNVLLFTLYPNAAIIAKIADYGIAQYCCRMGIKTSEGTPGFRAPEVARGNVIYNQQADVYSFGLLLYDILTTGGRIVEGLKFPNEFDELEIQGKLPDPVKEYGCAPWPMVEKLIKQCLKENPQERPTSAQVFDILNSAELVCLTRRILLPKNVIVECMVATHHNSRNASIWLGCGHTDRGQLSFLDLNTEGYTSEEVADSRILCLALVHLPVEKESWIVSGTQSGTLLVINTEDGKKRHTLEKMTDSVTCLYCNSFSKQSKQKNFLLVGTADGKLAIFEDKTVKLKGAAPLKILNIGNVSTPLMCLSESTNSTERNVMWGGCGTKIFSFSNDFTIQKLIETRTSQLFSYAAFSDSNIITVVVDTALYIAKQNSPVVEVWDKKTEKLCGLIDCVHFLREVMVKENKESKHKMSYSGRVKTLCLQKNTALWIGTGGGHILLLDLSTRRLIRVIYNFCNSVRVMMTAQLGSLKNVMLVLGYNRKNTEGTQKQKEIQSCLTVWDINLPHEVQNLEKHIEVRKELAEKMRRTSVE

With `CC(C)Oc1cc(N2CCN(C)CC2)ccc1Nc1ncc2c(n1)N(C)c1ccccc1C(=O)N2CC(F)(F)F`, the IC50 in [1] was 0.214 µM.
As to `COc1cc(N2CCC(O)CC2)ccc1Nc1ncc2c(n1)N(C)c1ccccc1C(=O)N2C`, the values for the half-maximal inhibitory concentration (IC50) in [2] and in data set [1] were 0.0141 µM and 0.097 µM, respectively.
In the same order, the values of `CN1C(=O)c2ccccc2N(C)c2nc(Nc3ccc(N4CCC(O)CC4)cc3)ncc21` are 0.03 µM and 0.109 µM.
In the same order, the values of `COc1cc(N2CCN(C)CC2)ccc1Nc1ncc2c(n1)N(C)c1ccc(Cl)cc1C(=O)N2C` are 1.33 µM and greater than 2 µM.
On to `CN1C(=O)c2ccccc2N(C)c2nc(Nc3ccc(NS(C)(=O)=O)cc3)ncc21`, for which the concentration for half-maximal inhibition (IC50) in data set [1] worked out at 0.002 µM.
For the compound `COc1cc(C(=O)N2CCN(C3CCN(C)CC3)CC2)ccc1Nc1ncc2c(n1)N(C)c1ccccc1C(=O)N2C`, the concentration for half-maximal inhibition (IC50) in data set [2] was determined as 0.005 µM.
Turning to `COc1cc(NS(C)(=O)=O)ccc1Nc1ncc2c(n1)N(C)c1ccccc1C(=O)N2C`, the IC50 in [2] is 0.0059 to 0.006 µM; in [3], 0.276 µM; in [4], 0.125 µM; in data set [1] it was 0.003 to 0.016 µM.
Take `COc1cc(C(=O)NC2CCN(C)CC2)ccc1Nc1ncc2c(n1)N(C)c1ccccc1C(=O)N2C(C)C`: the results for the IC50 in data set [2], in data set [4] and in [1] were 0.331 µM, 2.38 µM and 0.126 µM, respectively.
For `COc1cc(NS(C)(=O)=O)ccc1Nc1ncc2c(n1)N(C)c1ccccc1C(=O)N2CC(F)(F)F`, the IC50 in data set [2] was 8.89 µM; in data set [4], greater than 10 µM; in [1] it was 0.08 µM.
With `COc1cc(N2CCN(C)CC2)ccc1Nc1ncc2c(n1)N(C(C)C)c1ccccc1C(=O)N2C`, the IC50 is 0.289 µM in data set [2] and 0.071 µM in data set [1].
In the same order, the values of `CCOc1cc(C(=O)N2CCC(N3CCN(C)CC3)CC2)ccc1Nc1ncc2c(n1)N(C1CCCC1)c1ccccc1C(=O)N2C` are 0.171 µM and 0.022 µM.
On the same counts, the results for `COc1cc(N2CCN(C)CC2)ccc1Nc1ncc2c(n1)N(C)c1cc(Cl)ccc1C(=O)N2C` are 3.74 µM and greater than 2 µM.
In the case of `CCC(C)N1c2ccccc2C(=O)N(C)c2cnc(Nc3ccc(N4CCN(C)CC4)cc3OC)nc21` (stereo not given), the IC50 worked out at 0.743 µM in data set [2], 0.222 µM in data set [3] and 0.032 µM in [1].
Turning to `CCN1C(=O)c2ccccc2N(C)c2nc(Nc3ccc(C(=O)NC4CCN(C)CC4)cc3OC)ncc21`, the IC50 in [2] amounted to 0.014 µM; in [3], 0.482 µM; in [4], 0.52 µM; in data set [1], 0.002 µM.
For the compound `COc1cc(N2CCN(C)CC2)ccc1Nc1ncc2c(n1)N(C)c1ccccc1C(=O)N2C(C)C`, the results for the IC50 in data set [2], in data set [4] and in data set [1] were 1.9 µM, 1.2 µM and 0.411 µM, respectively.
As to `COc1cc(N2CCN(C)CC2)ccc1Nc1ncc2c(n1)N(C1CCC1)c1ccccc1C(=O)N2C`, the IC50 in data set [2] is 0.097 µM; in data set [3] it was 0.079 µM; in [1], 0.014 µM.
As for `CC(C)Oc1cc(N2CCC(O)CC2)ccc1Nc1ncc2c(n1)N(C)c1ccccc1C(=O)N2C`, the IC50 in [2] was 0.16 µM; in data set [1], 0.51 µM.
Regarding `COc1cc(N2CCN(C)CC2)ccc1Nc1ncc2c(n1)N(C)c1ccccc1C(=O)N2`, the IC50 is 0.07 µM in data set [2], 1.2 µM in data set [3], greater than 10 µM in data set [4] and greater than 1 µM in data set [1].
With `COc1cc(C(=O)NC2CCN(C)CC2)ccc1Nc1ncc2c(n1)N(C)c1ccccc1C(=O)N2C`, the figures for the IC50 in data set [2], in [4] and in data set [1] were 0.0082 to 0.018 µM, 4.17 µM and 0.001 to 0.004 µM, respectively.
On to `CCN1c2ccccc2C(=O)N(C)c2cnc(Nc3ccc(N4CCN(C)CC4)cc3OC)nc21`, for which the IC50 in [2] was 0.057 µM; in data set [1], 0.154 µM.
As for `COc1cc(NS(C)(=O)=O)ccc1Nc1ncc2c(n1)N(C)c1ccccc1C(=O)N2C(C)C`, the IC50 was 0.683 µM in [2], 7.49 µM in data set [4] and greater than 1 µM in data set [1].
For `COc1cc(N2CCN(C)CC2)ccc1Nc1ncc2c(n1)N(Cc1ccccc1)c1ccccc1C(=O)N2C`, the values for the IC50 in [2] and in data set [1] were 0.141 µM and 0.004 µM, respectively.
For `COc1cc(N2CCN(C)CC2)ccc1Nc1nc(C)c2c(n1)N(C)c1ccccc1C(=O)N2C`, the IC50 in [2] was 0.501 µM; in data set [3] it was greater than 10 µM; in [1], greater than 2 µM.
For the compound `CCOc1cc(N2CCC(O)CC2)ccc1Nc1ncc2c(n1)N(C)c1ccccc1C(=O)N2C`, the results for the IC50 in data set [2] and in data set [1] were 0.046 µM and 0.716 µM, respectively.
Regarding `CCN1C(=O)c2ccccc2N(C)c2nc(Nc3ccc(NS(C)(=O)=O)cc3OC)ncc21`, the IC50 in data set [2] turned out to be 0.023 µM; in data set [4], 4.6 µM; in data set [1], 0.036 µM.
For `CCN1C(=O)c2ccccc2N(C)c2nc(Nc3ccc(N4CCN(C)CC4)cc3OC)ncc21`, the IC50 in data set [2] is 0.062 µM; in data set [3], 1.2 µM; in data set [4], 0.83 µM; in data set [1], 0.003 µM.
Take `COc1cc(N2CCN(C)CC2)ccc1Nc1ncc2c(n1)N(C)c1ccccc1C(=O)N2CC(F)(F)F`: the AUC in [5] was 1.27 µg·h/mL. Besides, the half-inhibitory concentration (IC50) in [2] is 7 µM; in data set [3] (hela) it was 3.35 µM; in data set [4] it was greater than 10 µM; in data set [1] it was 0.017 µM. For the same compound, the clearance in data set [6] stood at 1.58 L/h/kg. Further, the outcome in [7] and in data set [11] was inactive. In addition, the Activity result in data set [8] and in data set [9] was “>=50 - 90%” in each case. Also, the t1/2 in data set [10] was 2.09 h.
With `COc1cc(N2CCN(C)CC2)ccc1Nc1ncc2c(n1)N(C1CCCC1)c1ccccc1C(=O)N2C`, the IC50 in [2] is 0.421 µM; in data set [1], 0.026 µM.
Regarding `COc1cc(C(=O)NC2CCN(C)CC2)ccc1Nc1ncc2c(n1)N(C)c1ccccc1C(=O)N2CC(F)(F)F`, the figures for the half-inhibitory concentration (IC50) in [2], in data set [4] and in [1] were 0.378 µM, 1.57 µM and 0.01 µM, respectively.
Consider `COc1cc(N2CCN(C)CC2)ccc1Nc1ncc2c(n1)N(C)c1ccc(C)cc1C(=O)N2C`, for which the results for the IC50 in data set [2] and in [1] were 0.928 µM and greater than 2 µM, respectively.
On the same counts, the results for `COc1cc(N2CCOCC2)ccc1Nc1ncc2c(n1)N(C)c1ccccc1C(=O)N2C` are 0.031 µM and 0.011 µM.
On the same counts, the results for `CN1C(=O)c2ccccc2N(C)c2nc(Nc3cccc(S(N)(=O)=O)c3)ncc21` are 0.0061 µM and 0.111 µM.
In the case of `Cc1cc(N2CCC(O)CC2)ccc1Nc1ncc2c(n1)N(C)c1ccccc1C(=O)N2C`, the IC50 in [2] stood at 0.035 µM; in data set [1], 0.037 µM.
On the same counts, the results for `CN1C(=O)c2ccccc2N(C)c2nc(Nc3ccc(S(N)(=O)=O)cc3)ncc21` are 0.007 µM and 0.187 µM.
Regarding `COc1cc(N2CCN(C)CC2)ccc1Nc1ncc2c(n1)N(C)c1ccccc1C(=O)N2C`, the IC50 in [2] is 0.029 µM; in data set [4], 0.888 µM; in data set [1] it was 0.011 to 0.016 µM.
For `COc1cc(N2CCN(C)CC2)ccc1Nc1ncc2c(n1)N(C)c1ccc(C)cc1C(=O)N2CC(F)(F)F`, the IC50 in data set [1] was greater than 5 µM.
As to `COc1cc(N2CCN(C3CCN(C)CC3)CC2)ccc1Nc1ncc2c(n1)N(C)c1ccccc1C(=O)N2C`, the IC50 in [2] was found to be 0.016 µM; in [1], 0.104 µM.
In the same order, the values of `COc1cc(N2CCNCC2)ccc1Nc1ncc2c(n1)N(C)c1ccccc1C(=O)N2C` are 0.023 µM and 0.052 µM.

What is called IC50 is the midpoint of a concentration-inhibition curve. The term AUC denotes concentration integrated over time. A higher AUC goes with high exposure. Usually clearance stands for the volume of plasma or blood freed of the substance per unit of time. Higher therefore signals a high capacity for elimination.
